Publication PMC7073886, “Structure–Bioactivity Relationships of Lapatinib Derived Analogs against Schistosoma mansoni” (ACS Medicinal Chemistry Letters, 2020)
In brackets after ≈: the same amount, converted by molar mass. Like-named read-outs stand apart in the source and are kept apart here.

Legend:
[1] = Human liver microsomal Clint; type: in vitro ADME; settings: human liver microsomes, intrinsic clearance; for microsomal CLint: read-out: HLM Clint
[2] = Aqueous pH 7.4 solubility; type: physicochemical; settings: for solubility: phosphate buffer pH 7.4, 25 °C, 20-24 h, read-out: aq sol (aqueous solubility)
Rat hepatocyte Clint = type: in vitro ADME; settings: rat hepatocytes, intrinsic clearance; for hepatocyte CLint: read-out: RH CLint
adult S. mansoni = assay: Phenotypic screen of adult S. mansoni worms, severity scores and descriptors; type: cell-based, Schistosoma mansoni; settings: for Descriptors (10 µM) 1 h / Severity Scores (10 μM) 1 h / Descriptors (10 µM) 5 h / Severity Scores (10 μM) 5 h / Descriptors (10 µM) 24 h / Severity Scores (10 μM) 24 h / Descriptors (10 µM) 48 h / Severity Scores (10 μM) 48 h: adult S. mansoni; for Descriptors (10 µM) 1 h / Descriptors (10 µM) 5 h / Descriptors (10 µM) 24 h / Descriptors (10 µM) 48 h: phenotypic descriptors; for Severity Scores (10 μM) 1 h / Severity Scores (10 μM) 5 h / Severity Scores (10 μM) 24 h / Severity Scores (10 μM) 48 h: scale 0 (no activity) to 4 (maximal activity); for bioactivity against adult S. mansoni: adult schistosomes; for Severity Scores (10 μM) 1 h / Severity Scores (10 μM) 5 h / Severity Scores (10 μM) 24 h / Severity Scores (10 μM) 48 h / bioactivity against adult S. mansoni: 10 μM
Procedure, shortened: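 Adult S. mansoni (NMRI isolate, ≥42 days old) were co-incubated with compounds and changes in motility, density, shape and adherence recorded visually over time and concentration. Descriptors converted to severity scores from 0 (no activity) to 4 (maximal).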

[3] = Log D7.4 shake-flask octanol-water; type: physicochemical; settings: pH 7.4
HepG2 cells = assay: Drug toxicity to HepG2 cells (MTT); type: cell-based; settings: for HepG2 TC50: HepG2 cells, 48 hours incubation, MTT
[4] = Human plasma protein binding (equilibrium dialysis); type: in vitro ADME; settings: for human PPB (plasma protein binding): 10 µM, 37 °C; for fraction unbound at 10 µM: pH 7.4, 37 °C, read-out: human PPB (plasma protein binding) (converted)
[5] = aqueous buffer, thermodynamic from solid

Row | solubility [2] | RH CLint (Rat hepatocyte Clint) | LogD 7.4 [3] | fraction unbound at 10 µM [4] | microsomal CLint [1] | solubility [2, 5] | hepatocyte CLint (Rat hepatocyte Clint) | logD [3] | SMILES | Descriptors (10 µM) 1 h (adult S. mansoni) | Severity Scores (10 μM) 1 h (adult S. mansoni) | Descriptors (10 µM) 5 h (adult S. mansoni) | Severity Scores (10 μM) 5 h (adult S. mansoni) | Descriptors (10 µM) 24 h (adult S. mansoni) | Severity Scores (10 μM) 24 h (adult S. mansoni) | Descriptors (10 µM) 48 h (adult S. mansoni) | Severity Scores (10 μM) 48 h (adult S. mansoni) | HepG2 TC50 (HepG2 cells) | bioactivity against adult S. mansoni (adult S. mansoni) | other results
1 | 630 µM (≈ 252 µg/mL) | 55 µL/min/10^6 cells | 2.3 | – | – | – | – | – | CN(C)CCN(C)c1ncc(-c2ccc3c(Nc4cnccn4)ccnc3c2)cn1 [S2c] | none | 0 | none | 0 | none | 0 | none | 0 | > 38 µM | – | HLM Clint [1]: 45 μL/min/mg protein
2 | 870 µM (≈ 406 µg/mL) | 10 µL/min/10^6 cells | 2.2 | – | – | – | – | – | O=S(=O)(c1ccc(-c2ccc3nccc(NCCN4CCCC4)c3c2)cc1)N1CCOCC1 [S3e] | none | 0 | none | 0 | – | 1 | – | 3 | 9.2 µM | – | human PPB (plasma protein binding) [4]: 73%; HLM Clint [1]: 28 μL/min/mg protein
3 | – | – | – | < 0.01 | 130 µL/min/mg | 14 µM (≈ 5.92 µg/mL) | 7 µL/min/1e6 cells | 5 | Cc1ccc2[nH]c3c4ccc(-c5cnc(N6CCCN(C)CC6)nc5)cc4ncc3c2c1 [6c] | – | 3 | – | 4 | – | 4 | – | 4 | – | severe bioactivity after 1 h | –
4 | – | – | – | 0.01 | 300 µL/min/mg | 0.3 µM (≈ 0.161 µg/mL) | 15 µL/min/1e6 cells | 4.4 | COc1ccc(Nc2ccnc3cc(-c4ccc(S(=O)(=O)N5CCCN(C)CC5)cc4)ccc23)cc1Cl [5e] | none | 0 | none | 0 | none | 0 | none | 0 | – | complete loss of bioactivity | –
5 | – | – | – | < 0.01 | 62 µL/min/mg | 6 µM (≈ 3.1 µg/mL) | 300 µL/min/1e6 cells | 3.9 | COc1ccc(NC(=O)c2ccc(-c3ccc(S(=O)(=O)N4CCN(C)CC4)cc3)cc2O)cc1Cl [7c] | none | 0 | – | 3 | – | 2 | – | – | – | phenotypic response after 5 h | –
6 | 1.4 µM (≈ 0.627 µg/mL) | 32 µL/min/10^6 cells | 3.3 | – | – | – | – | – | O=S(=O)(c1ccc(-c2ccc3nccc(Nc4ccncn4)c3c2)cc1)N1CCOCC1 [S3a] | none | 0 | none | 0 | none | 0 | none | 0 | > 34 µM | – | human PPB (plasma protein binding) [4]: 96%; HLM Clint [1]: 210 μL/min/mg protein
7 | – | – | – | < 0.01 | 44 µL/min/mg | 5 µM (≈ 2.27 µg/mL) | 300 µL/min/1e6 cells | 3.8 | COc1ccc(NC(=O)c2ccc(-c3cnc(N4CCN(C)CC4)nc3)cc2O)cc1Cl [7a] | none | 0 | none | 0 | none | 0 | – | – | – | complete loss of activity | –
8 | 790 µM (≈ 369 µg/mL) | 3.7 µL/min/10^6 cells | – | – | – | – | – | – | CN1CCC(Nc2ccnc3ccc(-c4ccc(S(=O)(=O)N5CCOCC5)cc4)cc23)CC1 [S3c] | none | 0 | none | 0 | none | 0 | none | 0 | 26 µM | – | human PPB (plasma protein binding) [4]: 58%; HLM Clint [1]: 23 μL/min/mg protein
9 | – | – | – | – | 30 µL/min/mg | – | 14 µL/min/1e6 cells | – | CN1CCCN(c2ccc(Nc3ccc4c(Nc5cnccn5)ccnc4c3)cc2)CC1 [S3k] | none | 0 | none | 0 | S, on sides | 2 | S, on sides | 2 | 17 µM | – | –
10 | – | – | – | 0.37 | 19 µL/min/mg | 53 µM (≈ 21.1 µg/mL) | 4 µL/min/1e6 cells | 1.8 | c1cnc(Nc2ccnc3cc(-c4cnc(N5CCCNCC5)nc4)ccc23)cn1 [4g] | none | 0 | none | 0 | none | 0 | none | 0 | – | bioactivity of this series was not observed | –
11 | 950 µM (≈ 361 µg/mL) | – | 1 | – | – | – | – | – | C[C@@H]1CNCCN1C(=O)c1ccc(-c2cccc(N3CCOCC3)c2)cc1N [S4d] | none | 0 | none | 0 | none | 0 | none | 0 | > 40 µM | – | human PPB (plasma protein binding) [4]: 63%
12 | – | – | – | < 0.01 | 59 µL/min/mg | 0.6 µM (≈ 0.263 µg/mL) | 4.4 µL/min/1e6 cells | 3.6 | COc1ccc(NC(=O)c2ccc(-c3cccc(N4CCOCC4)c3)cc2N)cc1Cl [7e] | none | 0 | none | 0 | S, on sides | 2 | – | 2 | – | bioactivity after 24 h | –
13 | – | – | – | 0.34 | 74 µL/min/mg | 930 µM (≈ 384 µg/mL) | 82 µL/min/1e6 cells | 2.2 | CN1CCCN(c2ncc(-c3ccc4c(Nc5ccncn5)ccnc4c3)cn2)CC1 [5c] | none | 0 | none | 0 | none | 0 | none | 0 | – | complete loss in activity | –
14 | 930 µM (≈ 381 µg/mL) | 2.6 µL/min/10^6 cells | -0.4 | – | – | – | – | – | C[C@@H]1CNCCN1C(=O)c1ccc(-c2cnc(N3CCCN(C)CC3)nc2)cc1N [S4c] | none | 0 | none | 0 | none | 0 | – | – | > 37 µM | – | human PPB (plasma protein binding) [4]: 42%
15 | 11 µM (≈ 4.46 µg/mL) | 7.6 µL/min/10^6 cells | 1.7 | – | – | – | – | – | C[S+]([O-])CCNc1ncc(-c2ccc3c(Nc4cnccn4)ccnc3c2)cn1 (stereo not shown) [S2b] | none | 0 | none | 0 | none | 0 | – | – | > 37 µM | – | HLM Clint [1]: 6 μL/min/mg protein
16 | – | – | – | – | – | – | – | 3.3 | Cc1cc2c(Nc3cnccn3)ccnc2cc1-c1cnc(N2CCN(C)CC2)nc1 [8a] | Unc, on sides | 2 | – | – | – | 4 | – | 4 | – | severe phenotypic response by 5 h | decrease in aqueous solubility compared with 3 ([2]; relative to 3): > 2200 fold; increase in toxicity against HepG2 cells compared with 3 (HepG2 cells; relative to 3): greater than 5 fold
17 | – | – | – | < 0.01 | 300 µL/min/mg | 4 µM (≈ 2.03 µg/mL) | 30 µL/min/1e6 cells | 4.5 | CN1CCCN(S(=O)(=O)c2ccc(-c3ccc4c(Nc5ccc(Cl)cn5)ccnc4c3)cc2)CC1 [5f] | – | 2 | S, on sides | 2 | Dark, S | 2 | Dark, S | 2 | – | moderate bioactivity recorded after 1 h | –
